We go through ten compounds from patent publication US8829193B2, “PIM kinase inhibitors and methods of their use” (Novartis AG, priority 2008, dated 2014).

What all share (format): biochemical
One test addresses Pim2 kinase (Homo sapiens (Human), UniProt Q9P1W9). Briefly: Pim2 ATP depletion assay. The conditions noted are these: 4 μM ATP, 10 μM BAD peptide, 5 nM PIM2. How it is done: (§1) The activity of PIM2 is measured using a luciferase-luciferin based ATP detection reagent to quantify ATP depletion resulting from kinase-catalyzed phosphoryl transfer to a peptide substrate. Compounds to be tested are dissolved in 100% DMSO and directly distributed into white 384-well plates at 0.5 piper well. […] After 15 minutes, 10 μl of 8 μM ATP in assay buffer is added. Final assay concentrations are 5 nM PIM2, 4 μM ATP, 10 μM BAD peptide and 2.5% DMSO. The reaction is performed until approximately 50% of the ATP is depleted, then stopped with the addition of 20 μl KinaseGlo Plus (Promega Corporation) solution. The stopped reaction is incubated for 10 minutes and the remaining ATP detected via luminescence on the Victor2 (Perkin Elmer).

For another test, the target named is Pim3 kinase (Homo sapiens (Human), UniProt Q86V86). Briefly: Pim3 ATP depletion assay. The settings on record: 40 μM ATP, 100 μM BAD peptide. As to the method:
as §1, with “of PIM3” for “of PIM2”, “of 80” for “of 8”, “nM PIM1, 40” for “nM PIM2, 4”, “ATP, 100” for “ATP, 10”, “stopped by” for “stopped with”

The target in another test is Pim1 kinase (Homo sapiens (Human), UniProt P11309). Briefly: Pim1 ATP depletion assay. The conditions noted are these: 20 μM ATP, 40 μM BAD peptide, 2.5 nM PIM1. As to the method:
as §1, with “of PIM1” for “of PIM2”, “0.5 μl per” for “0.5 piper”, “of 40” for “of 8”, “are 2.5” for “are 5”, “nM PIM1, 20” for “nM PIM2, 4”, “ATP, 40” for “ATP, 10”

Structures are written as SMILES.

Chain of Pim2 kinase (Q9P1W9 whole entry): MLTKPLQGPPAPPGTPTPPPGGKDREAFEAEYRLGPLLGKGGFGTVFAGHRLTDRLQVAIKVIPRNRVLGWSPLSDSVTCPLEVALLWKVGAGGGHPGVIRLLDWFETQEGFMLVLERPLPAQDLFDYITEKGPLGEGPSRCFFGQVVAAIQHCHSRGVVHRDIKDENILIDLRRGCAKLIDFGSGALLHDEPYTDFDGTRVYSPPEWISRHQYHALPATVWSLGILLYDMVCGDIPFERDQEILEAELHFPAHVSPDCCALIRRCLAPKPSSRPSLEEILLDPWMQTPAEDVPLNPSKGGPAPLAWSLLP
Chain of Pim1 kinase (P11309 whole entry): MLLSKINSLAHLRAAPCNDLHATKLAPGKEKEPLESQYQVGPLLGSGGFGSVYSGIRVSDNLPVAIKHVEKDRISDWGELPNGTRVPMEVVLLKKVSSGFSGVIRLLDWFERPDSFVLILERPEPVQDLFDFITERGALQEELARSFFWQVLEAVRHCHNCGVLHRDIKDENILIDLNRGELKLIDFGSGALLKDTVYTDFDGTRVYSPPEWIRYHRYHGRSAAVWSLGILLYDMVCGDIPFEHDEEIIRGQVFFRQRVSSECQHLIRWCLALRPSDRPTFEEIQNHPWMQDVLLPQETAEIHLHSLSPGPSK

What is called IC50 is the concentration needed to halve the response being measured. High values mean weaker potency, low ones greater potency. For `CC[C@@H]1C[C@H](N)CN(c2ccncc2NC(=O)c2csc(-c3c(F)cccc3F)n2)C1` [Example 25, N-(4-((3S,5R)-3-amino-5-ethylpiperidin-1-yl)pyridin-3-yl)-2-(2,6-difluorophenyl)thiazole-4-carboxamide], the results for the IC50 at Pim2 kinase, against Pim3 kinase and on Pim1 kinase were 3 nM, 3 nM and 1 nM, respectively.

In the case of `N[C@@H]1C[C@@H](C(F)(F)F)CN(c2ccncc2NC(=O)c2csc(-c3c(F)cccc3F)n2)C1` [Example 26, N-(4-((3R,5R)-3-amino-5-(trifluoromethyl)piperidin-1-yl)pyridin-3-yl)-2-(2,6-difluorophenyl)thiazole-4-carboxamide], the concentration for half-maximal inhibition (IC50) against Pim2 kinase came out at 72 nM; on Pim3 kinase, 24 nM; against Pim1 kinase, 6 nM.

On to `Nc1sc(-c2c(F)cccc2F)nc1C(=O)Nc1cnccc1N1CCC(F)CC1` [Example 30, 5-amino-2-(2,6-difluorophenyl)-N-(4-(4-fluoropiperidin-1-yl)pyridin-3-yl)thiazole-4-carboxamide], for which the IC50 against Pim2 kinase amounted to 55 nM; against Pim3 kinase it was 3 nM; at Pim1 kinase it was 1 nM.

Consider `C[C@@H]1C[C@H](O)C[C@H](c2ccncc2NC(=O)c2csc(-c3c(F)cccc3F)n2)C1` [Example 31, 2-(2,6-difluorophenyl)-N-(4-((1R,3S,5S)-3-hydroxy-5-methylcyclohexyl)pyridin-3-yl)thiazole-4-carboxamide], for which the figures for the IC50 against Pim2 kinase, against Pim3 kinase and at Pim1 kinase were 90 nM, 8 nM and 2 nM, respectively.

As to `C[C@@H]1C[C@H](O)C[C@H](c2ccncc2NC(=O)c2nc(-c3c(F)cccc3F)sc2N)C1` [Example 32, 5-amino-2-(2,6-difluorophenyl)-N-(4-((1R,3S,5S)-3-hydroxy-5-methylcyclohexyl)pyridin-3-yl)thiazole-4-carboxamide], the IC50 on Pim2 kinase was determined as 5 nM; against Pim3 kinase it was 4 nM; on Pim1 kinase it was 1 nM.

`C[C@@H]1CN(c2ccncc2NC(=O)c2csc(-c3c(F)cccc3F)n2)C[C@@H](N)[C@H]1O` [Example 35, N-(4-((3R,4S,5R)-3-amino-4-hydroxy-5-methylpiperidin-1-yl)pyridin-3-yl)-2-(2,6-difluorophenyl)thiazole-4-carboxamide]: the IC50 against Pim2 kinase was found to be 125 nM; at Pim3 kinase, 9 nM; against Pim1 kinase it was 9 nM.

Consider `C[C@@H]1C[C@H](N)C[C@H](c2ccncc2NC(=O)c2csc(C3CCCCC3)n2)C1` [Example 40, N-(4-((1R,3S,5S)-3-amino-5-methylcyclohexyl)pyridin-3-yl)-2-cyclohexylthiazole-4-carboxamide], for which the IC50 was determined as 97 nM against Pim2 kinase, 109 nM at Pim3 kinase and 41 nM against Pim1 kinase.

Turning to `C[C@H]1C[C@@H](c2ccncc2NC(=O)c2csc(C3CCCCC3)n2)C[C@@H](N)[C@@H]1O` [Example 42, N-(4-((1R,3R,4R,5S)-3-amino-4-hydroxy-5-methylcyclohexyl)pyridin-3-yl)-2-cyclohexylthiazole-4-carboxamide], the IC50 against Pim2 kinase is 250 nM; against Pim3 kinase it was 215 nM; against Pim1 kinase, 146 nM.

In the case of `C[C@H]1C[C@@H](c2ccncc2NC(=O)c2csc(-c3c(F)cccc3F)n2)C[C@@H](N)[C@H]1O` [Example 43, N-(4-((1R,3R,4S,5S)-3-amino-4-hydroxy-5-methylcyclohexyl)pyridin-3-yl)-2-(2,6-difluorophenyl)thiazole-4-carboxamide (and enantiomer)], the values for the IC50 against Pim2 kinase, on Pim3 kinase and on Pim1 kinase were 46 nM, 15 nM and 5 nM, respectively.

`CC1(C)C[C@H](N)C[C@H](c2ccncc2NC(=O)c2csc(-c3c(F)cccc3F)n2)C1` [Example 46, N-(4-((1R,5R)-5-amino-3,3-dimethylcyclohexyl)pyridin-3-yl)-2-(2,6-difluorophenyl)thiazole-4-carboxamide]: the IC50 on Pim2 kinase was determined as 16 nM; against Pim3 kinase, 3 nM; against Pim1 kinase it was 1 nM.
